Assays:
Tlr4−/− MLECs = assay: Elastolytic activity in Tlr4−/− MLECs treated with DPI, NAC or apocynin; assay type: cell-based, mouse; conditions: DPI 10 μM, NAC 100 μM, apocynin 10 μM; 24 hours
Protocol: MLECs were isolated by as described by Kuhlencordt et al. (Kuhlencordt P. J., et al., 2004, Am. J. Physiol. Cell Physiol. 286:C1195C1202.), with some modifications. Briefly, lungs were extracted, minced, and digested for 1 hour at 37° C. with 0.1% collagenase (Roche Diagnostics) in RPMI-1640 with 100 U/ml penicillin G and 100 μg/ml streptomycin. The digest was passed through a 100-μm cell strainer to remove undigested tissue fragments. Cells were pelleted at 200 g for 5 minutes; resuspended in MLEC medium containing 20% FBS, 40% DMEM, and 40% F12 with 100 U/ml penicillin G and 100 μg/ml streptomycin; and plated onto 0.1% gelatin-coated T75 flasks. Cells were washed after 24 hours and cultured for 2-4 days. Cells were trypsinized with 2 ml trypsin/EDTA, PBS added, and spun for 5 minutes at 200 g to remove the supernatant. Cells were resuspended in 2% FBS containing 10 μl biotin-labeled rat anti-mouse CD31 (PECAM-1) antibody (BD Biosciences—Pharmingen). After incubation on ice for 30 minutes, the cells were washed with streptavidin magnetic beads (New England Biolabs Inc.). Cells were washed with 2% FBS, resuspended in 5 ml of 2% FBS, and incubated on ice for 30 minutes. The cells were then placed on the magnet for 5 minutes, and unbound cells were removed while bound cells were resuspended in medium and plated onto a 0.1% gelatin-coated T25 flask. CD31 staining and flow cytometry confirmed that greater than 95% of the cells were endothelial cells. […]
The elastolytic activities in lung tissues, BAL, and cell lysates was determined by hydrolysis of insoluble elastin and detected spectrophotometrically using elastin-Congo red as a substrate according to the method described previously (Rust L., et al., 1994, Methods Enzymol. 235:554-562). […] The optical density of the supernatant was measured at 485 nm with a DYNEX Revelation version 3.2 spectrophotometer. The elastolytic activity was calculated as ng elastase/μg protein in the lysates according to the standard curve established by the reaction of porcine elastase and elastin-Congo red.

Tlr4−/− mice [1] = assay: Total antioxidant capacity in BAL and serum of Tlr4−/− mice on antioxidant therapy; assay type: in vivo, mouse; conditions: NAC 1 g/kg or apocynin 3 mg/kg in drinking water from 3 weeks, sacrificed at 3 months; for total antioxidant content in serum: serum (data not shown)
Source text: Tlr4^−/− and MyD88^−/− mice have been previously described (Zhang X., et al., 2005, J. Immunol. 175:4834-4838; Adachi O., et al., 1998, Immunity. 9:143-150; Hoshino K., et al., 1999, J. Immunol. 162:3749-3752). TLR4-deficient mouse lines C3H/HeJ and C57BL/10ScNJ and their respective controls were purchased from The Jackson Laboratory. C57BL/6J Tlr4^−/− mice were generated after greater than 10 generations of backcrossing onto a C57BL/6J background. WT littermates were used as controls. For antioxidant therapy, Tlr4^−/− mice were randomized into 3 groups at 3 weeks of age—NAC (1 g/kg body weight; Sigma-Aldrich) (apocynin (3 mg/kg body weight; Calbiochem; EMD Biosciences) (or vehicle-only drinking water—and then sacrificed at 3 months. Mice were maintained under specific pathogen-free conditions at the animal facility of Yale University School of Medicine. Animal protocols were reviewed and approved by the Animal Care and Use Committee at Yale University. Total antioxidant capacity was measured in cell-free BAL and serum using the Quantitative Assay for Total Antioxidant Potential kit (Oxis International Inc.) according to the manufacturer's instructions. […] Bathocuproine selectively forms a 2:1 complex with Cu^+, which has a maximum absorbance at 490 nm. A standard of a known uric acid concentration was used to create a calibration curve. Results are expressed as μM copper-reducing equivalents.

Tlr4−/− mice [2] = assay: Elastase inhibitory capacity (EIC) in Tlr4−/− mice on antioxidant therapy; assay type: in vivo, mouse; conditions: NAC 1 g/kg or apocynin 3 mg/kg in drinking water, BAL, 3 months
Source text: Tlr4^-/- and MyD88^-/- mice have been previously described (Zhang X., et al., 2005, J. Immunol. 175:4834-4838; Adachi O., et al., 1998, Immunity. 9:143-150; Hoshino K., et al., 1999, J. Immunol. 162:3749-3752). TLR4-deficient mouse lines C3H/HeJ and C57BL/10ScNJ and their respective controls were purchased from The Jackson Laboratory. C57BL/6J Tlr4^-/- mice were generated after greater than 10 generations of backcrossing onto a C57BL/6J background. WT littermates were used as controls. For antioxidant therapy, Tlr4^-/- mice were randomized into 3 groups at 3 weeks of age-NAC (1 g/kg body weight; Sigma-Aldrich) (apocynin (3 mg/kg body weight; Calbiochem; EMD Biosciences) (or vehicle-only drinking water-and then sacrificed at 3 months. Mice were maintained under specific pathogen-free conditions at the animal facility of Yale University School of Medicine. Animal protocols were reviewed and approved by the Animal Care and Use Committee at Yale University. EIC was assessed in BAL and serum using previously described methods (Klumpp T. et al., 1979, Clin. Chem. 25:969-97; […]., et al., 2001, Am. J. Respir. Crit. Care Med. 164:886-890). […] EICs against PPE (type III; Sigma-Aldrich) in BAL and serum were determined using succinyl-[…]-nitroanilide (SAPNA; Sigma-Aldrich) as the elastase substrate. EIC was expressed as percentage of enzyme activity inhibited by serum or BAL samples. […]

Tlr4−/− mice [3] = assay: Reduced GSH/oxidized GSH in BAL of Tlr4−/− mice on antioxidant therapy; assay type: in vivo, mouse; conditions: NAC 1 g/kg or apocynin 3 mg/kg in drinking water, 3 months
Source text: (§1) Tlr4^−/− and MyD88^−/− mice have been previously described (Zhang X., et al., 2005, J. Immunol. 175:4834-4838; Adachi O., et al., 1998, Immunity. 9:143-150; Hoshino K., et al., 1999, J. Immunol. 162:3749-3752). TLR4-deficient mouse lines C3H/HeJ and C57BL/10ScNJ and their respective controls were purchased from The Jackson Laboratory. C57BL/6J Tlr4^−/− mice were generated after greater than 10 generations of backcrossing onto a C57BL/6J background. WT littermates were used as controls. For antioxidant therapy, Tlr4^−/− mice were randomized into 3 groups at 3 weeks of age—NAC (1 g/kg body weight; Sigma-Aldrich) (apocynin (3 mg/kg body weight; Calbiochem; EMD Biosciences) (or vehicle-only drinking water—and then sacrificed at 3 months. Mice were maintained under specific pathogen-free conditions at the animal facility of Yale University School of Medicine. Animal protocols were reviewed and approved by the Animal Care and Use Committee at Yale University. The ratio of reduced GSH to oxidized GSH was measured in cell-free BAL using GSH/GSSG-412 kit (Oxis International Inc.) according to the manufacturer's instructions.

Tlr4−/− mice [4] = assay: Emphysema (lung volume, chord length, histology) in Tlr4−/− mice on antioxidant therapy; assay type: in vivo, mouse; conditions: NAC 1 g/kg or apocynin 3 mg/kg in drinking water from 3 weeks, sacrificed at 3 months
Source text: as §1, with “University. Mice were anesthetized, the trachea was cannulated, and the lungs were removed and inflated with PBS at 25 cm H2O.” for “University.”, “The size” for “The ratio”, “of the lung” for “of reduced GSH to oxidized GSH”, “was evaluated by volume displacement. Hematoxylin and eosin (H&E) or periodic acid-Schiff with diastase (PAS) staining was performed after pressure fixation with Streck solution (Streck Laboratories)” for “was measured”, “in” for “in cell-free BAL using GSH/GSSG-412 kit (Oxis International Inc.) according to”, “the Research Pathology Laboratory at Yale University. […]” for “the manufacturer's instructions.”

[5] = system: elastase- and cigarette smoke-induced emphysema; conditions: aerosolized; cited from earlier work

| Molecule | elastolytic activity in Tlr4−/− MLECs (Tlr4−/− MLECs) | total antioxidant content in BAL (Tlr4−/− mice [1]) | total antioxidant content in serum (Tlr4−/− mice [1]) | EIC (Tlr4−/− mice [2]) | GSH levels (reduced GSH/oxidized GSH ratio) (Tlr4−/− mice [3]) | TLR4-mediated emphysema (lung volume, mean linear chord length, histology) (Tlr4−/− mice [4]) | protection against emphysema [5] |
| --- | --- | --- | --- | --- | --- | --- | --- |
| c1ccc2c(c1)[I+]c1ccccc1-2 [DPI, diphenylene iodonium] | reversed to levels achieved by the broad-acting antioxidant NAC |  |  |  |  |  |  |
| CC(=O)N[C@@H](CS)C(=O)O [NAC] | reversed | increased the total antioxidant content in BAL | increased the total antioxidant content | an increase in the EIC | increased GSH levels | prevented TLR4-mediated emphysema |  |
| COc1cc(C(C)=O)ccc1O [apocynin] | reversed to levels achieved by the broad-acting antioxidant NAC | increased the total antioxidant content in BAL | increased the total antioxidant content | an increase in the EIC | increased GSH levels | prevented TLR4-mediated emphysema |  |
| Hyaluronan [HA] |  |  |  |  |  |  | protects against elastase- and cigarette smoke-induced emphysema |

— patent publication US20100086546A1, “Toll-LIke Receptor 4 Deficiency and Downstream Effectors Cause Pulmonary Emphysema” (Yale University, priority 2007, published 2010)
